Literature values in US20050137163A1, “Modified hyaluronic acid for use in musculoskeletal tissue repair” (priority 2003, published 2005).

Details: investigated previously as an antimicrobial agent

Substance: benzalconium chloride [BzCl]
- concentration shown to be safe: up to 0.1 % weight
